The target in series [1] is T1, human recombinant COX-2 enzyme (Homo sapiens, UniProt P35354).
T1 sequence (P35354 18-604): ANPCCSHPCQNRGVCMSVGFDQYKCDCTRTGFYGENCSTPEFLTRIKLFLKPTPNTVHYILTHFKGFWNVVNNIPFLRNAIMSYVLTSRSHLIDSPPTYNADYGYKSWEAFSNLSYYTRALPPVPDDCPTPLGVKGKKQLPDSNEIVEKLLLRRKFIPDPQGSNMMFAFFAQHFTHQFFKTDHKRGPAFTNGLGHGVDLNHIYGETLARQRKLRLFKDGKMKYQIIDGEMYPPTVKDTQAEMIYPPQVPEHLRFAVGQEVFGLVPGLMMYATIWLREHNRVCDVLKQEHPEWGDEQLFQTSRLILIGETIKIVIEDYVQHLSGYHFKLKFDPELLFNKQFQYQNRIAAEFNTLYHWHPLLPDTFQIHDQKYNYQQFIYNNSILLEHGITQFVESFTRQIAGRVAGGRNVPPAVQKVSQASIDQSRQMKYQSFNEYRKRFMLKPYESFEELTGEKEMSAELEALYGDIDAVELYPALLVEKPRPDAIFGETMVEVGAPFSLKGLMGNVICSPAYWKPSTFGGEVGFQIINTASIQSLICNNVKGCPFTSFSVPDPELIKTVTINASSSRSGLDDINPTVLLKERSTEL
In words: In vitro COX-2 inhibition assay.

Drawing on article PMC6920857, “Novel Series of Methyl 3-(Substituted Benzoyl)-7-Substituted-2-Phenylindolizine-1-Carboxylates as Promising Anti-Inflammatory Agents: Molecular Modeling Studies” (Biomolecules, 2019), this text covers melting point and IC50 for seven compounds.

By melting point is commonly meant the temperature, or range, at which the solid turns liquid. As a reminder, the IC50 is the midpoint of a concentration-inhibition curve. Compound `COC(=O)c1c(-c2ccccc2)c(C(=O)c2ccc(C#N)cc2)n2ccc(C#N)cc12` [Compound 4e, Methyl 7-Cyano-3-(4-Cyanobenzoyl)-2-Phenylindolizine-1-Carboxylate] had a melting point of 235 to 236 °C. Further, the IC50 in series [1] is 6.71 ± 0.03 µM.
For `COC(=O)c1c(-c2ccccc2)c(C(=O)c2ccc(F)cc2)n2ccc(C)cc12` [Compound 4b, Methyl 3-(4-Fluorobenzoyl)-7-Methyl-2-Phenylindolizine-1-Carboxylate], in that order: 167 to 168 °C and 27.08 ± 0.03 µM.
For `COC(=O)c1c(-c2ccccc2)c(C(=O)c2ccc(Cl)cc2)n2ccc(C)cc12` [Compound 4c, Methyl 3-(4-Chlorobenzoyl)-7-Methyl-2-Phenylindolizine-1-Carboxylate], in that order: 154 to 155 °C and 38.11 ± 0.03 µM.
On the same counts, the results for `COC(=O)c1c(-c2ccccc2)c(C(=O)c2ccc(OC)cc2)n2ccc(C#N)cc12` [Compound 4g, Methyl 7-Cyano-3-(4-Methoxybenzoyl)-2-Phenylindolizine-1-Carboxylate] are 166 to 167 °C and 9.62 ± 0.03 µM.
As to `COC(=O)c1c(-c2ccccc2)c(C(=O)c2ccccc2)n2ccc(C)cc12` [Compound 4a, Methyl 3-Benzoyl-7-Methyl-2-Phenylindolizine-1-Carboxylate], the melting point is 173 to 174 °C. For the same compound, the IC50 in series [1] came out at 41.59 ± 0.03 µM.
For `COC(=O)c1c(-c2ccccc2)c(C(=O)c2ccc(Br)cc2)n2ccc(C#N)cc12` [Compound 4f, Methyl 3-(4-Bromobenzoyl)-7-Cyano-2-Phenylindolizine-1-Carboxylate], in that order: 208 to 209 °C and 13.55 ± 0.03 µM.
For `COC(=O)c1c(-c2ccccc2)c(C(=O)c2ccc(Br)cc2)n2ccc(C)cc12` [Compound 4d, Methyl 3-(4-Bromobenzoyl)-7-Methyl-2-Phenylindolizine-1-Carboxylate], in that order: 137 to 138 °C and 37.66 ± 0.03 µM.
